Reference: US9611248B2, “Chemical compounds” (Syngenta Participations AG, priority 2013, dated 2017)

Each compound was assayed on a variety of test species (assay: Post-emergence herbicidal activity). Settings: rate 250 g/ha, evaluated after 13 days.
Type: in vivo
Parameters: key to ABUTH (Abutilon theophrasti) damage score / AMARE (Amaranthus retroflexus) damage score / ALOMY (Alopecurus myosuroides) damage score / ECHCG (Echinochloa crus-galli) damage score / ZEAMX (Zea mays) damage score / SOLNI (Solanum nigrum) damage score: 0 = no damage to plant, 5 = total damage to plant
Summary of the method: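 Damage on a 0–5 scale (5 = plant killed) was rated 13 days after treatment. Test species had been sown in standard soil and raised 8 days under glasshouse conditions of 24/16 °C, 14 h light, 65% humidity. They were then sprayed with aqueous solution from an acetone/water 50:50 formulation containing 0.5% Tween 20.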

Structure (SMILES)	ABUTH (Abutilon theophrasti) damage score	ALOMY (Alopecurus myosuroides) damage score	AMARE (Amaranthus retroflexus) damage score	ECHCG (Echinochloa crus-galli) damage score	SETFA (Setaria faberi) damage score	ZEAMX (Zea mays) damage score
COC1=C(C)C(=O)N(c2cc(C(F)(F)F)c(OCCc3ccccc3)cn2)C1O (stereo not drawn) [AD85]	5	2	5	2	4	1
COC1=C(C)C(=O)N(c2cc(Cl)c(-c3ccccc3)cn2)C1O (stereo not drawn) [AD70]	4	3	5	1	3	1

Same assay, conditions: rate 1000 g/ha, evaluated after 13 days

Structure (SMILES)	ALOMY (Alopecurus myosuroides) damage score	AMARE (Amaranthus retroflexus) damage score	ECHCG (Echinochloa crus-galli) damage score	SETFA (Setaria faberi) damage score	SOLNI (Solanum nigrum) damage score	ZEAMX (Zea mays) damage score	ABUTH (Abutilon theophrasti) damage score
CC1=C(Cl)C(O)N(c2ccc(Cl)cn2)C1=O (stereo not drawn) [AA32]	0	0	0	2	2	0	–
CCc1cc(N2C(=O)C(C)=C(OC)C2O)ncc1-c1cccc(F)c1 (stereo not drawn) [AD108]	3	5	3	5	–	0	5
COC1=C(C)C(=O)N(c2cc(C)c(-c3ccc(OC)cc3)cn2)C1O (stereo not drawn) [AD115]	2	5	1	1	–	1	5
COC1=C(C)C(=O)N(c2cc(C(F)(F)F)c(C(C)=O)cn2)C1O (stereo not drawn) [AD2, 1-[5-acetyl-4-(trifluoromethyl)-2-pyridyl]-2-hydroxy-3-methoxy-4-methyl-2H-pyrrol-5-one]	5	5	5	5	–	2	5
COC1=C(C)C(=O)N(c2cc(C(F)(F)F)c(-c3ccoc3)cn2)C1O (stereo not drawn) [AD124]	2	5	2	4	–	0	2
COC1=C(C)C(=O)N(c2cc(C(F)(F)F)c(Oc3ccccc3)cn2)C1O (stereo not drawn) [AD88]	3	5	4	5	–	1	5
COC1=C(C)C(=O)N(c2cc(C)c(-c3ccc(F)cc3F)cn2)C1O (stereo not drawn) [AD122]	3	5	4	4	–	0	5
C=CCOC1=C(C)C(=O)N(c2cc(C(F)(F)F)ccn2)C1O (stereo not drawn) [AD42]	4	5	5	5	–	2	5
COC1=C(C)C(=O)N(c2cc(C(C)(C)C)c(N3CC(F)(F)C3)nn2)C1O (stereo not drawn) [BD12]	4	5	5	5	–	2	5
COC1=C(C)C(=O)N(c2cc(C)c(NC(=O)C(C)(C)C)cn2)C1O (stereo not drawn) [AD90]	5	5	5	5	–	2	5
COC1=C(C)C(=O)N(c2cc(C)c(-c3ccc(OC)c(OC)c3)cn2)C1O (stereo not drawn) [AD117]	2	5	1	4	–	0	5
CC1=C(Cl)C(O)N(c2cc(C(F)(F)F)c(Br)cn2)C1=O (stereo not drawn) [AA25, 1-[5-bromo-4-(trifluoromethyl)-2-pyridyl]-3-chloro-2-hydroxy-4-methyl-2H-pyrrol-5-one]	2	5	3	3	–	1	1
C#Cc1cnc(N2C(=O)C(C)=C(OC)C2O)cc1C(F)(F)F (stereo not drawn) [AD20]	4	5	4	5	–	0	4
CCC/C=C/c1cnc(N2C(=O)C(C)=C(OC)C2O)cc1C(F)(F)F (stereo not drawn) [AD13]	5	5	5	5	–	1	5
COC1=C(C)C(=O)N(c2cc(C(C)(C)C)c(Cl)nn2)C1O (stereo not drawn) [BD2]	4	5	5	5	–	2	5
CC1=C(Cl)C(O)N(c2cc(C#N)ccn2)C1=O (stereo not drawn) [AA20]	1	0	1	1	–	0	1
CCC1=C(Cl)C(O)N(c2cc(C(C)(C)C#N)ncn2)C1=O (stereo not drawn) [CA3]	0	1	0	0	–	0	1
C=CCOc1nnc(N2C(=O)C(C)=C(OC)C2O)cc1C(C)C (stereo not drawn) [BD6]	1	0	1	2	–	1	1
COC1=C(C)C(=O)N(c2ncc(Cl)c(N(C)C)n2)C1O (racemic) [DD3]	2	4	2	6	–	1	3
COC1=C(C)C(=O)N(c2cc(C)c(S(=O)(=O)NC(C)(C)C)cn2)C1O (stereo not drawn) [AD94]	1	0	1	1	–	0	1
CCc1cc(N2C(=O)C(C)=C(OC)C2O)ncc1-c1ccc(C)c([N+](=O)[O-])c1 (stereo not drawn) [AD103]	3	5	4	4	–	1	4
COC1=C(C)C(=O)N(c2cc(C)c(-c3ccccc3OC)cn2)C1O (stereo not drawn) [AD110]	2	5	1	2	–	0	5
COC1=C(C)C(=O)N(c2cc(C(F)(F)F)c(-c3ccccc3C)cn2)C1O (stereo not drawn) [AD132]	2	5	4	5	–	2	5
COC1=C(C)C(=O)N(c2cc(C(F)(F)F)c(C(=O)NC(C)(C)C)cn2)C1O (stereo not drawn) [AD54]	5	5	5	5	–	5	5
COC1=C(C)C(=O)N(c2cc(C(F)(F)F)c(OCCCc3ccccc3)cn2)C1O (stereo not drawn) [AD84]	1	5	2	4	–	1	2
COC1=C(C)C(=O)N(c2cc(C(F)(F)F)c(/C(C)=C/C#N)cn2)C1O (stereo not drawn) [AD38, (E)-3-[6-(2-hydroxy-3-methoxy-4-methyl-5-oxo-2H-pyrrol-1-yl)-4-(trifluoromethyl)-3-pyridyl]but-2-enenitrile]	5	5	5	5	–	0	5
CC1=C(Cl)C(O)N(c2cc(C)c(Br)cn2)C1=O (stereo not drawn) [AA10]	1	3	1	2	–	1	0
